Reference: patent publication US20200131227A1, “POLYPEPTIDE WITH TUMOUR BINDING ACTIVITY” (RUPRECHT-KARLS-UNIVERSITÄT HEIDELBERG, priority 2017, published 2020)
Where a SMILES comes first, the peptide text is derived from it. Bridges are numbered along the chain shown (N, C = ends). The star is where a group is joined. DOTA = O=C(O)CN1CCN(CC(=O)O)CCN(CC(=O)*)CCN(CC(=O)O)CC1

Experiments:
[1] = test system: HNO97 cells; format: binding, human; settings: 48 h
Protocol: For binding studies, 2.5×10^5 to 4×10^5 cells were seeded in 6-well plates and cultivated for 48 hours. Cells were incubated for 60 min with 1 mL serum-free medium containing the ^125I-labeled peptide (see above). For competition experiments, cells were simultaneously exposed to unlabeled (10^-4 M to 10^-10 M) and ^125I-labeled peptides. After three washing steps with PBS (pH 7.4) the cells were lysed with 0.5 mL of 0.3 M NaOH. Experiments concerning the internalization, kinetics and efflux were additionally performed with ^177Lu-DOTA-SFITGv6. To evaluate kinetics and efflux HNO97 cells were incubated for different time intervals (10 min to 480 min) and 60 min, respectively, with ^177Lu-DOTA-SFITGv6 and lysed as described. To continue with the efflux experiment radioactive medium was replaced by non-radioactive medium and cells were incubated again for 60 to 240 min before measuring radioactivity of the cell lysates and the medium. For internalization experiments the cells were exposed to ^177Lu-DOTA-SFITGv6 for different time intervals (10 to 240 min) at 37° C. and 4° C. After three washing steps with PBS the cells were incubated with 1 mL of glycine-HCl 50 mmol/L in PBS (pH 2.8) for 10 min at RT to remove the surface bound activity. Then, cells were washed with 3 mL of ice-cold PBS and lysed as described. Radioactivity was determined in a gamma counter and calculated as percentage of the applied dose per 1×10^6 cells. Experiments were performed three times, and three repetitions per independent experiment were acquired.

[2] = target: ITGαvβ6 (Homo sapiens, UniProt P06756+P18564); assay: Surface plasmon resonance assay (SPR), ITGαvβ6; format: binding; settings: peptide immobilized, integrin as analyte, 1:1 Langmuir fit
Protocol: (§1) Assessment of the binding affinity was performed on a BiaCore X100 (GE Healthcare). To avoid denaturation of the heterodimer during amide activation ITGαvβ6 and ITGαvβ3, respectively, were used as analytes and SFITGv6 was immobilized at its N-terminus on a C1 sensor Chip (BR-1005-35, GE Healthcare) using a manual amine coupling protocol. Briefly, after activation of the sensor chip surface with a solution of EDC 0.4 M/NHS 0.1 M for 5 min a 100 μM peptide dissolved in HBS-EP running buffer (0.1 M HEPES, 30 mM EDTA, 1.5 M NaCl, 0.5% surfactant P20, pH 7.2) was immobilized with a contact time of 30 sec until a loading level of 18 response units (RU) was obtained. […] The SPR-sensogram data were evaluated with the BiaCore evaluation software. The dissociation constant (KD) was determined by a 1:1 Langmuir model fit of the SPR-sensograms.
Assessment of the binding affinity was performed on a BiaCore X100 (GE Healthcare). To avoid denaturation of the heterodimer during amide activation ITGαvβ6 and ITGαvβ3, respectively, were used as analytes and SFITGv6 was immobilized at its N-terminus on a C1 sensor Chip (BR-1005-35, GE Healthcare) using a manual amine coupling protocol. […] The SPR sensogram data were evaluated with the BiaCore evaluation software. The dissociation constant (KD) was determined by a 1:1 Langmuir model fit of the SPR sensograms.

[3] = target: ITGαvβ3 (Homo sapiens, UniProt P05106+P06756); assay: Surface plasmon resonance assay (SPR), ITGαvβ3; format: binding
Chain of ITGαvβ3 (P06756 31-992 limits assumed): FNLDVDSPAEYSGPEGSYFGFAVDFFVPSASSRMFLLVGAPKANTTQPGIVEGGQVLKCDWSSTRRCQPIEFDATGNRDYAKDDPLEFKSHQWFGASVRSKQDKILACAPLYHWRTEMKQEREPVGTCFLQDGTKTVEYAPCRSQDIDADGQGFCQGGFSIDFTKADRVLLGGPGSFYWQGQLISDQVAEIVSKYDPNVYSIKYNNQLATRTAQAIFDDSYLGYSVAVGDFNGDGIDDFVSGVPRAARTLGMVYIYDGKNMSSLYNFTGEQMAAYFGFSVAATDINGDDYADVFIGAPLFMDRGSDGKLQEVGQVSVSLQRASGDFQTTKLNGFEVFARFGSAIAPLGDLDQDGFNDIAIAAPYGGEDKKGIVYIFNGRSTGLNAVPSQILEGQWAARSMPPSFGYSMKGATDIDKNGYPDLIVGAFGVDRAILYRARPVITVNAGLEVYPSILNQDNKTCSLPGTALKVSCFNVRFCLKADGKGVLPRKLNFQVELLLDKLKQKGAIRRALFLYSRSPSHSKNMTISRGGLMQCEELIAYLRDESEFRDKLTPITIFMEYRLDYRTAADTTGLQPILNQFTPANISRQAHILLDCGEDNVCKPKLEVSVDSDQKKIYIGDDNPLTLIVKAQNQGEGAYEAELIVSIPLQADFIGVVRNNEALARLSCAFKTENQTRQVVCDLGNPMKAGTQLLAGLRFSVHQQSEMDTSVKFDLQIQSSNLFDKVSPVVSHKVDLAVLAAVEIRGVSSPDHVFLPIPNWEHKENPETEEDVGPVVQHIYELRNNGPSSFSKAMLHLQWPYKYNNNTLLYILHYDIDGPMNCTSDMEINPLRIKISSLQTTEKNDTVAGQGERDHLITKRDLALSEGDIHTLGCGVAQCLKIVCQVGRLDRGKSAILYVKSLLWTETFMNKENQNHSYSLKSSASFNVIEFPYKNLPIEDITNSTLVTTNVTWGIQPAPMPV
Chain of ITGαvβ3 (P05106 27-718 limits assumed): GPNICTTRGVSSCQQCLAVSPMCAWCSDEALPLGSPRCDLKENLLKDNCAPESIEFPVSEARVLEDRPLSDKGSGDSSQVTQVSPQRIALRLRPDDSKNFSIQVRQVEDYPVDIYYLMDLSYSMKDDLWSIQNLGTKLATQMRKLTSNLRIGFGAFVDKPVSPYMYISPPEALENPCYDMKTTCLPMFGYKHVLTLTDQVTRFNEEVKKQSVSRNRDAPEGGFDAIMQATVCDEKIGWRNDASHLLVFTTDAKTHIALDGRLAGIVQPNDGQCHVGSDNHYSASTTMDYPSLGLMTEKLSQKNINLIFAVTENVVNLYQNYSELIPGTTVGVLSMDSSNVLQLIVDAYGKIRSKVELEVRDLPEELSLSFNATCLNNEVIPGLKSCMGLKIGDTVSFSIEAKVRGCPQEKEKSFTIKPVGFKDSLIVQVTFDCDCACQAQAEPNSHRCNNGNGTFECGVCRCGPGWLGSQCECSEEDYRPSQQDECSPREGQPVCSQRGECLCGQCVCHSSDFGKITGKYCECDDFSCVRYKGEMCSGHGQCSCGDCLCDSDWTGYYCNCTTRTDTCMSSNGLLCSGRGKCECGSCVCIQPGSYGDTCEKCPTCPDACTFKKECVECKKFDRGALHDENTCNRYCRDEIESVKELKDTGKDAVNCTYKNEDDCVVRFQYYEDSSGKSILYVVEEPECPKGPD
Protocol: as §1
as §1, with “SFLAP3” for “peptide”, “to obtain” for “until”, “12” for “18”, “(RU).” for “(RU) was obtained.”, “SPR sensogram” for “SPR-sensogram”, “SPR sensograms.” for “SPR-sensograms.”

[4] = test system: tumor-free lymph nodes; assay: Histochemical peptide staining of carcinoma-free lymph nodes; set-up: species or system human
Protocol: Staining with the biotinylated PEG(12)-SFITGv6 peptide was performed on acetone-fixed cryosections (5 μm) of tumor tissues after blocking of unspecific binding using the Avidin/Biotin Blocking Kit (SP-2001, Vector Laboratories). A stock solution of the lyophilized peptide was prepared by dilution in 5% aqueous DMSO. Slices were incubated overnight at 4° C. with 10^-5 M peptide concentration in antibody diluent (DAKO). Detection of bound peptide was carried out with the Vectastain Elite ABC Kit (PK-6100, Vector Laboratories) according to manufacturer's protocol. Peptide specificity was ensured by a scrambled (GRD) PEG(12)-SFITGv6 derivate, the somatostatin receptor ligand DOTATOC and negative controls (without peptide or primary antibody) Staining results were assessed by bright field microscopy (BX50) with the SC30 camera and the cell Sense software (all Olympus).

[5] = test system: Capan-2 cells; assay: In vitro binding, internalization and efflux on Capan-2 cells; format: cell-based, human
Protocol: For in vitro binding Studies, 4*10^5-6*10^5 cells were seeded in 6 well plates and cultivated for 24 to 48 hours. At the start of the experiment the medium was replaced with 1 ml serum free medium with a definite amount of radioactive labeled peptide per well. For normal binding assays the cells were incubated for 60 min at 37° C. and afterwards washed 3 times with PBS (pH 7.4). Cells were lysed with 2 times 0.5 ml of a 0.3 M NaOH +0.2% SDS lysis-buffer. Competition assays were performed with ^125I-labeled and unlabelled (10^−6 to 10^−11M) peptide and incubated at the same time for 60 min.
Cells were incubated for 10 to 240 min with ^177Lu-labelled peptide in internalization assays. After the washing steps, the cells were incubated with 1 ml glycine-HCl (1 M, pH 2.2) buffer for 10 min to remove surface bound peptide. Prior to the lyses the cells were washed again. Values are given as percentage of applied dose per 10^6 cells.
The efflux was tested with ^177Lu-labeled peptides. After 60 min incubation the radioactive medium was removed and 1 ml fresh serum-free medium was added. After additional incubation of 60, 120 or 240 min, cell bound activity was measured.

Compound | IC50 [1] [nM] | Kd [2] [nM] | lower affinity for ITGαvβ3 than for ITGαvβ6 ([3]; SPR) | Kd ([3]; peptide immobilized, integrin as analyte, 1:1 Langmuir fit) [nM] | histochemical peptide staining result [4] | cell binding of ^177Lu-DOTA-labeled peptide ([5]; after 60 min) [%] | internalization rate in comparison of the three peptides ([5]; after 4 hours) | efflux (released into the culture medium) ([5]; during 4 hours following 60 min exposure) [%]
CSCC[C@@H]1NC(=O)[C@H](CC(C)C)NC(=O)[C@H](CC(=O)O)NC(=O)CNC(=O)[C@H](CCCNC(=N)N)NC(=O)[C@H](Cc2ccccc2)NC(=O)[C@H]([C@@H](C)O)NC(=O)[C@@H](NC(=O)[C@H](CCCNC(=N)N)NC(=O)CN)CSSC[C@@H](C(=O)N[C@@H](Cc2ccc(O)cc2)C(=O)N2CCC[C@H]2C(=O)N[C@@H](CC(=O)O)C(=O)O)NC(=O)[C@H](CC(C)C)NC(=O)[C@H](CCC(N)=O)NC1=O [SFITGv6, NH2-G-R-C1-T-F-R-G-D-L-M-Q-L-C1-Y-P-D-COOH] (H-GRCTFRGDLMQLCYPD-OH; disulfide 3-13) | 16.1 | 14.8 ± 26 | ten-fold lower affinity | 185 ± 0.8 | did not show any SFITGv6-specificy | – | – | –
CC(C)C[C@@H]1NC(=O)[C@H](CC(=O)O)NC(=O)CNC(=O)[C@H](CCCNC(=N)N)NC(=O)CNC(=O)[C@H]([C@@H](C)O)NC(=O)[C@@H](NC(=O)[C@H](CCCNC(=N)N)NC(=O)CNC(=O)CN2CCN(CC(=O)O)CCN(CC(=O)O)CCN(CC(=O)O)CC2)CSSC[C@@H](C(=O)N[C@@H](Cc2ccc(O)cc2)C(=O)N2CCC[C@H]2C(=O)N[C@@H](CC(=O)O)C(N)=O)NC(=O)[C@H](CC(C)C)NC(=O)[C@H](CCCNC(=N)N)NC(=O)CNC1=O [^177Lu-DOTA-SFLAP3, metal not drawn] ({DOTA}-GRCTGRGDLGRLCYPD-NH2; disulfide 3-13; N-terminus and C-terminus assumed) | – | – | – | – | – | 9.5 | highest internalization rate | 50
